# From PubChem BioAssay AID1259411 (Chemical Carcinogenesis Research Information System (CCRIS), 2018)
# Calls of active or inactive are those of the source. How the calls were made is not given here.
# Test system: rodent carcinogenicity bioassays, tumor incidence
# Assay: CCRIS carcinogenicity studies
# Text: The CCRIS database contains chemical records with carcinogenicity, mutagenicity, tumor promotion, and tumor inhibition test results. It was developed by the National Cancer Institute (NCI). Data are derived from studies cited in primary journals, current awareness tools, NCI reports, and other sources. Test results have been reviewed by experts in carcinogenesis and mutagenesis.
# CCRIS provides historical information from the years 1985 - 2011. It is no longer updated.
# This is an archive assay for CCRIS carcinogenicity studies.
Structure (SMILES),"carcinogen call (Species: MOUSE, Strain/Sex: CD-1/FEMALE (70/GROUP), Route: ORAL (GAVAGE), Dose: 0, 0.3, 15, 30 MG/KG/D IN 1% CARBOXYMETHYLCELLULOSE FOR 85 WK, Dose: 0, 0.3, 15, 30 MG/KG/D IN 1% CARBOXYMETHYLCELLULOSE FOR 85 WK, Tumor Site: Type of Lesion: FORESTOMACH: SQUAMOUS PAPILLOMAS)","carcinogen call (Species: MOUSE, Strain/Sex: CD-1/FEMALE (80/GROUP), Route: ORAL (GAVAGE), Dose: 0, 50, 150, 350 MG/KG/D IN 1% CARBOXYMETHYLCELLULOSE FOR 93 WK, Dose: 0, 50, 150, 350 MG/KG/D IN 1% CARBOXYMETHYLCELLULOSE FOR 93 WK)","carcinogen call (Species: MOUSE, Strain/Sex: CD-1/FEMALE, Route: GAVAGE, Dose: 0, 0.3, 15, 30 MG/KG/D FOR 52 OR 85 WK (STUDY DURATION: 86 WK), Dose: 0, 0.3, 15, 30 MG/KG/D FOR 52 OR 85 WK (STUDY DURATION: 86 WK), Tumor Site: Type of Lesion: FORESTOMACH: PAPILLOMA)","carcinogen call (Species: MOUSE, Strain/Sex: CD-1/FEMALE, Route: GAVAGE, Dose: 0, 50, 150, 350 MG/KG/D FOR 52 OR 84 WK (HIGH DOSE GROUP TERMINATED IN WK 23) (STUDY DURATION: 93 WK), Dose: 0, 50, 150, 350 MG/KG/D FOR 52 OR 84 WK (HIGH DOSE GROUP TERMINATED IN WK 23) (STUDY DURATION: 93 WK))","carcinogen call (Species: MOUSE, Strain/Sex: CD-1/MALE (70/GROUP), Route: ORAL (GAVAGE), Dose: 0, 0.3, 15, 30 MG/KG/D IN 1% CARBOXYMETHYLCELLULOSE FOR 85 WK, Dose: 0, 0.3, 15, 30 MG/KG/D IN 1% CARBOXYMETHYLCELLULOSE FOR 85 WK)","carcinogen call (Species: MOUSE, Strain/Sex: CD-1/MALE (80/GROUP), Route: ORAL (GAVAGE), Dose: 0, 50, 150, 350 MG/KG/D IN 1% CARBOXYMETHYLCELLULOSE FOR 84 WK, Dose: 0, 50, 150, 350 MG/KG/D IN 1% CARBOXYMETHYLCELLULOSE FOR 84 WK)","carcinogen call (Species: MOUSE, Strain/Sex: CD-1/MALE, Route: GAVAGE, Dose: 0, 0.3, 15, 30 MG/KG/D FOR 52 OR 85 WK (STUDY DURATION: 86 WK), Dose: 0, 0.3, 15, 30 MG/KG/D FOR 52 OR 85 WK (STUDY DURATION: 86 WK))","carcinogen call (Species: MOUSE, Strain/Sex: CD-1/MALE, Route: GAVAGE, Dose: 0, 50, 150, 350 MG/KG/D FOR 52 OR 84 WK (HIGH DOSE GROUP TERMINATED IN WK 23) (STUDY DURATION: 84 WK), Dose: 0, 50, 150, 350 MG/KG/D FOR 52 OR 84 WK (HIGH DOSE GROUP TERMINATED IN WK 23) (STUDY DURATION: 84 WK))","carcinogen call (Species: RAT, Strain/Sex: CD (SPRAGUE-DAWLEY)/FEMALE (75/GROUP), Route: ORAL (GAVAGE), Dose: 0, 0.03, 0.3, 3 MG/KG/D IN 1% CARBOXYMETHYLCELLULOSE FOR 101 WKS, Dose: 0, 0.03, 0.3, 3 MG/KG/D IN 1% CARBOXYMETHYLCELLULOSE FOR 101 WKS)","carcinogen call (Species: RAT, Strain/Sex: CD (SPRAGUE-DAWLEY)/FEMALE (75/GROUP), Route: ORAL (GAVAGE), Dose: 0, 6, 9, 18-24 MG/KG/D IN 1% CARBOXYMETHYLCELLULOSE FOR 104 WKS, Dose: 0, 6, 9, 18-24 MG/KG/D IN 1% CARBOXYMETHYLCELLULOSE FOR 104 WKS)","carcinogen call (Species: RAT, Strain/Sex: CD (SPRAGUE-DAWLEY)/MALE (75/GROUP), Route: ORAL (GAVAGE), Dose: 0, 0.03, 0.3, 3 MG/KG/D IN 1% CARBOXYMETHYLCELLULOSE FOR 95 WKS, Dose: 0, 0.03, 0.3, 3 MG/KG/D IN 1% CARBOXYMETHYLCELLULOSE FOR 95 WKS)","carcinogen call (Species: RAT, Strain/Sex: CD (SPRAGUE-DAWLEY)/MALE (75/GROUP), Route: ORAL (GAVAGE), Dose: 0, 6, 9, 18-24 MG/KG/D IN 1% CARBOXYMETHYLCELLULOSE FOR 104 WKS, Dose: 0, 6, 9, 18-24 MG/KG/D IN 1% CARBOXYMETHYLCELLULOSE FOR 104 WKS, Tumor Site: Type of Lesion: THYROID: FOLLICULAR ADENOMA (11/75))","carcinogen call (Species: RAT, Strain/Sex: STRAIN-CD/FEMALE, Route: GAVAGE, Dose: 0, 0.03, 0.3, 3 MG/KG/D FOR 95 WK (STUDY DURATION: 114 WK), Dose: 0, 0.03, 0.3, 3 MG/KG/D FOR 95 WK (STUDY DURATION: 114 WK))","carcinogen call (Species: RAT, Strain/Sex: STRAIN-CD/FEMALE, Route: GAVAGE, Dose: 0, 6, 9, 18-24 MG/KG/D FOR 104 WK (STUDY DURATION: 104 WK), Dose: 0, 6, 9, 18-24 MG/KG/D FOR 104 WK (STUDY DURATION: 104 WK))","carcinogen call (Species: RAT, Strain/Sex: STRAIN-CD/MALE, Route: GAVAGE, Dose: 0, 0.03, 0.3, 3 MG/KG/D FOR 95 WK (STUDY DURATION: 114 WK), Dose: 0, 0.03, 0.3, 3 MG/KG/D FOR 95 WK (STUDY DURATION: 114 WK))","carcinogen call (Species: RAT, Strain/Sex: STRAIN-CD/MALE, Route: GAVAGE, Dose: 0, 6, 9, 18-24 MG/KG/D FOR 104 WK (STUDY DURATION: 104 WK), Dose: 0, 6, 9, 18-24 MG/KG/D FOR 104 WK (STUDY DURATION: 104 WK))","carcinogen call (Species: MOUSE, Strain/Sex: ICR/FEMALE, Route: DERMAL, Tumor Site: Type of Lesion: INTEGUMENTARY SYSTEM (SKIN): PAPILLOMA, CARCINOMA)","carcinogen call (Species: MOUSE, Strain/Sex: XVII-NC/Z/MALE, Route: SUBCUTANEOUS, Tumor Site: Type of Lesion: INJECTION SITE: SARCOMA)","carcinogen call (Species: RAT, Strain/Sex: OSBORNE-MENDEL/FEMALE, Route: LUNG IMPLANT, Dose: 0, 0.16, 0.83, 4.15 MG IN BEESWAX/TRIOCTANOIN (STUDY DURATION: LIFETIME), Dose: 0, 0.16, 0.83, 4.15 MG IN BEESWAX/TRIOCTANOIN (STUDY DURATION: LIFETIME), Tumor Site: Type of Lesion: LUNG: EPIDERMOID CARCINOMA)"
CC(C)n1c(/C=C/[C@H](O)C[C@H](O)CC(=O)O)c(-c2ccc(F)cc2)c2ccccc21,active; positive,inactive; negative,active; positive,inactive; negative,inactive; negative,inactive; negative,inactive; negative,inactive; negative,inactive; negative,inactive; negative,inactive; negative,active; positive,inactive; negative,inactive; negative,inactive; negative,inactive; negative,,,
c1ccc2c(c1)-c1ccc3ccc4cccc5cc-2c1c3c45,,,,,,,,,,,,,,,,,active; positive,active; positive,active; positive
